Measurements taken from US8212007B2, “Expression and purification of HIP/PAP and uses therefor” (priority 2007, dated 2012).

What was measured:
Listeria monocytogenes = experiment: Bactericidal activity after N-terminal cleavage with trypsin; format: cell-based; conditions: 5 μM protein, 2 hours at 37° C., L. monocytogenes
Procedure: Eleven amino acids were truncated from the N-terminus HIP/PAP resulting in increase bactericidal activity.
Purified recombinant HIP/PAP was cleaved by the addition of bovine trypsin (Sigma) in a 1:200 molar ratio (trypsin:HIP/PAP). After 2 hours incubation at 37° C., 5 μM trypsin-treated HIP/PAP or uncleaved recombinant HIP/PAP was added to Listeria monocytogenes that had been grown to mid-log phase in brain-heart infusion (BHI) broth and resuspended in 25 mM MES pH 6, 25 mM NaCl. Initial bacterial concentrations ranged from 10^5 to 10^6 CFU/ml. After incubation for 2 hours at 37° C., viable bacteria were quantitated by dilution plating on BHI agar plates.

[1] = test system: intestinal bacteria recovered from conventional mouse small intestine; experiment: Flow cytometry binding to intestinal bacteria; conditions: 30 μM conjugate, 40 minutes on ice, formaldehyde-fixed bacteria

Substance | bactericidal activity with or without N-terminal truncation (11 amino acids) (Listeria monocytogenes) | binding of AlexaFluor555 conjugate to intestinal bacteria (flow cytometry) [1]
trypsin-treated HIP/PAP: recombinant HIP/PAP cleaved with bovine trypsin, 11 amino acids removed from the N-terminus | increased bactericidal activity | –
BSA-AlexaFluor555: AlexaFluor555-labeled BSA, control for flow cytometry binding to intestinal bacteria | – | no binding
